Experimental data from patent US20090099195A1 (ASTRAZENECA AB, priority 2007, published 2009).

Target: T1, hP2X3 (human Purinergic P2X receptors subtype 3), clone B (Homo sapiens, UniProt P56373)
T1 sequence (P56373 1-397): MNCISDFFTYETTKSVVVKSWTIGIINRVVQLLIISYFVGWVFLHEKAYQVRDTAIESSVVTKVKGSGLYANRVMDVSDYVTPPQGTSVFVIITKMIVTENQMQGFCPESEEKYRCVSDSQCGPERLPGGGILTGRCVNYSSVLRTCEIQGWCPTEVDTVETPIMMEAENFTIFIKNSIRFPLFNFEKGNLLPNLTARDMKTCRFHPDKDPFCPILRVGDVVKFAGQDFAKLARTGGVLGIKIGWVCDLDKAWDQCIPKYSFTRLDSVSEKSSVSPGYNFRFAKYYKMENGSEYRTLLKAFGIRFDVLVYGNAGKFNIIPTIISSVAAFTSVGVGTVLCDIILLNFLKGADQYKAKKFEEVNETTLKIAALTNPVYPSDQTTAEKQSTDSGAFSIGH
Experiment: hP2X3 FLIPR calcium (Fluo-4) antagonist assay, clone B
Conditions: Human P2X3 FLIPR Clone B IC50 (nM), RLE cells expressing hP2X3 clone B (NM_002559); agonist 500 nM α,β-methylene-ATP

Row | Compound | IC50 [nM]
1 | CC(C)N1Cc2c(NC(c3ccc(F)cc3)c3ccc(F)cc3)nc(N(C)CCN(C)C)nc2C1=O [Example 24, 4-{[bis(4-fluorophenyl)methyl]amino}-2-[[2-(dimethylamino)ethyl](methyl)amino]-6-isopropyl-5,6-dihydro-7H-pyrrolo[3,4-d]pyrimidin-7-one] | 190
2 | CC(=O)N1CCN(c2nc(NC(c3ccc(Cl)cc3)C3CC3)c3c(n2)C(=O)N(C(C)C)C3)CC1 (centres unmarked) [Example 27, 2-(4-acetylpiperazin-1-yl)-4-{[(4-chlorophenyl)(cyclopropyl)methyl]amino}-6-isopropyl-5,6-dihydro-7H-pyrrolo[3,4-d]pyrimidin-7-one] | 140
3 | CC(=O)N1CCN(c2nc(NC(C)c3ccc(C(F)(F)F)cc3)c3c(n2)C(=O)N(C(C)C)C3)CC1 (centres unmarked) [Example 28, 2-(4-acetylpiperazin-1-yl)-6-isopropyl-4-({1-[4-(trifluoromethyl)phenyl]ethyl}amino)-5,6-dihydro-7H-pyrrolo[3,4-d]pyrimidin-7-one] | 200
4 | CCCc1ccc(C(C)Nc2nc(N3CCN(C(C)=O)CC3)nc3c2CN(C(C)C)C3=O)cc1 (centres unmarked) [Example 29, 2-(4-acetylpiperazin-1-yl)-6-isopropyl-4-{[1-(4-propylphenyl)ethyl]amino}-5,6-dihydro-7H-pyrrolo[3,4-d]pyrimidin-7-one] | 160
5 | CC(C)N1Cc2c(Nc3ccc(Cl)cc3)nc(N3CCN(C(=O)CC4NC(=O)NC4=O)CC3)nc2C1=O (centres unmarked) [Example 31, 5-[2-(4-{4-[(4-chlorophenyl)amino]-6-isopropyl-7-oxo-6,7-dihydro-5H-pyrrolo[3,4-d]pyrimidin-2-yl}piperazin-1-yl)-2-oxoethyl]imidazolidine-2,4-dione] | 270
6 | CCC(Nc1nc(N2CCN(C(C)=O)CC2)nc2c1CN(C(C)C)C2=O)c1ccc(C(F)(F)F)cc1 (centres unmarked) [Example 32, 2-(4-acetylpiperazin-1-yl)-6-isopropyl-4-({1-[4-(trifluoromethyl)phenyl]propyl}amino)-5,6-dihydro-7H-pyrrolo[3,4-d]pyrimidin-7-one] | 430
7 | CC(=O)N1CCN(c2nc(NC(C(=O)O)c3ccc(C(F)(F)F)cc3)c3c(n2)C(=O)N(C(C)C)C3)CC1 (centres unmarked) [Example 35, {[2-(4-acetylpiperazin-1-yl)-6-isopropyl-7-oxo-6,7-dihydro-5H-pyrrolo[3,4-d]pyrimidin-4-yl]amino}[4-(trifluoromethyl)phenyl]acetic acid] | 1200
8 | CCC(Nc1nc(N2CCN(C(C)=O)CC2)nc2c1CN(C(C)C)C2=O)c1ccc(C)cc1 (centres unmarked) [Example 36, 2-(4-acetylpiperazin-1-yl)-6-isopropyl-4-{[1-(4-methylphenyl)propyl]amino}-5,6-dihydro-7H-pyrrolo[3,4-d]pyrimidin-7-one] | 1800
9 | CC(C)N1Cc2c(Nc3ccc(Cc4ccccc4)cc3)nc(N3CCOCC3)nc2C1=O [Example 37, 4-[(4-benzylphenyl)amino]-6-isopropyl-2-morpholin-4-yl-5,6-dihydro-7H-pyrrolo[3,4-d]pyrimidin-7-one] | > 30000
10 | CC(=O)N1CCN(c2nc(NCc3ccc4c(c3)CCCN4C)c3c(n2)C(=O)N(C(C)C)C3)CC1 [Example 38, 2-(4-acetylpiperazin-1-yl)-6-isopropyl-4-{[(1-methyl-1,2,3,4-tetrahydroquinolin-6-yl)methyl]amino}-5,6-dihydro-7H-pyrrolo[3,4-d]pyrimidin-7-one] | 12000
11 | CCN(Nc1nc(N2CCN(C(C)=O)CC2)nc2c1CN(C(C)C)C2=O)c1ccc(C)cc1 [Example 39, 2-(4-acetylpiperazin-1-yl)-4-[2-ethyl-2-(4-methylphenyl)hydrazino]-6-isopropyl-5,6-dihydro-7H-pyrrolo[3,4-d]pyrimidin-7-one] | 10000
12 | CC(=O)N1CCN(c2nc(NC(C)c3ccc(C(C)C)cc3)c3c(n2)C(=O)N(C(C)C)C3)CC1 (centres unmarked) [Example 40, 2-(4-acetylpiperazin-1-yl)-6-isopropyl-4-{[1-(4-isopropylphenyl)ethyl]amino}-5,6-dihydro-7H-pyrrolo[3,4-d]pyrimidin-7-one] | 310
13 | CC(=O)N1CCN(c2nc(NCc3ccc(C(C)C)cc3)c3c(n2)C(=O)N(C(C)C)C3)CC1 [Example 43, 2-(4-acetylpiperazin-1-yl)-6-isopropyl-4-[(4-isopropylbenzyl)amino]-5,6-dihydro-7H-pyrrolo[3,4-d]pyrimidin-7-one] | 650
14 | COCCNc1nc2c(c(N3CCCC3Cc3ccc(Cl)cc3)n1)CN(C(C)C)C2=O (centres unmarked) [Example 44, 4-[2-(4-chlorobenzyl)pyrrolidin-1-yl]-6-isopropyl-2-[(2-methoxyethyl)amino]-5,6-dihydro-7H-pyrrolo[3,4-d]pyrimidin-7-one] | 9600
15 | CC(=O)NCCNc1nc2c(c(N3CCCC3Cc3ccc(Cl)cc3)n1)CN(C(C)C)C2=O (centres unmarked) [Example 45, N-[2-({4-[2-(4-chlorobenzyl)pyrrolidin-1-yl]-6-isopropyl-7-oxo-6,7-dihydro-5H-pyrrolo[3,4-d]pyrimidin-2-yl}amino)ethyl]acetamide] | 2200
16 | CC(=O)N1CCN(c2nc3c(c(N4CCCC4Cc4ccccc4Cl)n2)CN(C(C)C)C3=O)CC1 (centres unmarked) [Example 46, 2-(4-acetylpiperazin-1-yl)-4-[2-(2-chlorobenzyl)pyrrolidin-1-yl]-6-isopropyl-5,6-dihydro-7H-pyrrolo[3,4-d]pyrimidin-7-one] | 2300
17 | CC(=O)N1CCN(c2nc3c(c(N4CCCC4Cc4cccc(Cl)c4)n2)CN(C(C)C)C3=O)CC1 (centres unmarked) [Example 48, 2-(4-acetylpiperazin-1-yl)-4-[2-(3-chlorobenzyl)pyrrolidin-1-yl]-6-isopropyl-5,6-dihydro-7H-pyrrolo[3,4-d]pyrimidin-7-one] | 300
18 | CC(C)N1Cc2c(nc(N3CCNC(=O)C3)nc2N2CCCC2Cc2ccc(Cl)cc2)C1=O (centres unmarked) [Example 49, 4-[2-(4-chlorobenzyl)pyrrolidin-1-yl]-6-isopropyl-2-(3-oxopiperazin-1-yl)-5,6-dihydro-7H-pyrrolo[3,4-d]pyrimidin-7-one] | 2000
19 | CC(=O)N1CCN(c2nc3c(c(N4CCCC4Cc4ccc(Cl)cc4)n2)CN(C(C)C)C3=O)CC1 (centres unmarked) [Example 50, 2-(4-acetylpiperazin-1-yl)-4-[2-(4-chlorobenzyl)pyrrolidin-1-yl]-6-isopropyl-5,6-dihydro-7H-pyrrolo[3,4-d]pyrimidin-7-one] | 150
20 | CC(=O)N1CCN(c2nc3c(c(N(Cc4ccccc4)CC4CC4)n2)CN(C(C)C)C3=O)CC1 [Example 51, 2-(4-acetylpiperazin-1-yl)-4-[benzyl(cyclopropylmethyl)amino]-6-isopropyl-5,6-dihydro-7H-pyrrolo[3,4-d]pyrimidin-7-one] | 2700
21 | CC(=O)N1CCN(c2nc3c(c(N4CCCC4c4ccc(Cl)cc4)n2)CN(C(C)C)C3=O)CC1 (centres unmarked) [Example 52, 2-(4-acetylpiperazin-1-yl)-4-[2-(4-chlorophenyl)pyrrolidin-1-yl]-6-isopropyl-5,6-dihydro-7H-pyrrolo[3,4-d]pyrimidin-7-one] | 720
22 | CC(=O)N1CCN(c2nc(NC(C)c3ccc(Cl)cc3)c3c(n2)C(=O)N(C(C)C)C3)CC1 (centres unmarked) [Example 53, 2-(4-acetylpiperazin-1-yl)-4-{[1-(4-chlorophenyl)ethyl]amino}-6-isopropyl-5,6-dihydro-7H-pyrrolo[3,4-d]pyrimidin-7-one] | 750
23 | CC(=O)N1CCN(c2nc3c(c(N4CCCC4Cc4ccccc4)n2)CN(C(C)C)C3=O)CC1 (centres unmarked) [Example 54, 2-(4-acetylpiperazin-1-yl)-4-(2-benzylpyrrolidin-1-yl)-6-isopropyl-5,6-dihydro-7H-pyrrolo[3,4-d]pyrimidin-7-one] | 240
24 | CC(=O)N1CCN(c2nc(NCCc3ccc(C)c(C)c3)c3c(n2)C(=O)N(C(C)C)C3)CC1 [Example 55, 2-(4-acetylpiperazin-1-yl)-4-{[2-(3,4-dimethylphenyl)ethyl]amino}-6-isopropyl-5,6-dihydro-7H-pyrrolo[3,4-d]pyrimidin-7-one] | 9700
25 | CC(=O)N1CCN(c2nc(NCCc3ccc(C)cc3C)c3c(n2)C(=O)N(C(C)C)C3)CC1 [Example 56, 2-(4-acetylpiperazin-1-yl)-4-{[2-(2,4-dimethylphenyl)ethyl]amino}-6-isopropyl-5,6-dihydro-7H-pyrrolo[3,4-d]pyrimidin-7-one] | 2700
26 | CC(C)N1Cc2c(nc(NCCN(C)C)nc2N2CCCC2Cc2ccc(Cl)cc2)C1=O (centres unmarked) [Example 57, 4-[2-(4-chlorobenzyl)pyrrolidin-1-yl]-2-{[2-(dimethylamino)ethyl]amino}-6-isopropyl-5,6-dihydro-7H-pyrrolo[3,4-d]pyrimidin-7-one] | 8500
27 | CC(=O)N1CCN(c2nc3c(c(N(Cc4ccccc4)Cc4ccc(Cl)cc4)n2)CN(C(C)C)C3=O)CC1 [Example 58, 2-(4-acetylpiperazin-1-yl)-4-[benzyl(4-chlorobenzyl)amino]-6-isopropyl-5,6-dihydro-7H-pyrrolo[3,4-d]pyrimidin-7-one] | 270
28 | CC(=O)N1CCN(c2nc3c(c(N(Cc4ccc(Cl)cc4)CC4CC4)n2)CN(C(C)C)C3=O)CC1 [Example 59, 2-(4-acetylpiperazin-1-yl)-4-[(4-chlorobenzyl)(cyclopropylmethyl)amino]-6-isopropyl-5,6-dihydro-7H-pyrrolo[3,4-d]pyrimidin-7-one] | 220
29 | CC(C)N1Cc2c(NC(C)(C)Cc3ccc(Cl)cc3)nc(N3C[C@@H](C)O[C@@H](C)C3)nc2C1=O [Example 61, 4-{[2-(4-chlorophenyl)-1,1-dimethylethyl]amino}-2-[(2R,6S)-2,6-dimethylmorpholin-4-yl]-6-isopropyl-5,6-dihydro-7H-pyrrolo[3,4-d]pyrimidin-7-one] | 1400
